We go through 38 compounds from US20070079447A1, “Insect repellent textile” (Beiersdorf AG, priority 2003, published 2007).

Test system in one data set: not listed separately
Nature of the data set: Polarity: interfacial tension toward water.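 Note: polarity expressed as oil–water interfacial tension in mN/m, lower values meaning a more polar oil, with medium-polar lipids falling between 20 and 30 mN/m.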 The settings on record: medium-polar lipids. Format: physicochemical.
Excerpt: For the purposes of the present invention, lipids are regarded as being polar if their interfacial tension toward water is less than 20 mN/m, and as nonpolar if their interfacial tension toward water is more than 30 mN/m. Lipids with an interfacial tension toward water between 20 and 30 mN/m are generally referred to as medium-polar.
`CCCCCCCCCCCCCCCC(=O)OCCCCCCCC` [Cegesoft C24, Octyl Palmitate] registered a Polarity of 23.1 mN/m.
For the compound `CC(C)CCCCCCCOC(=O)C(C)(C)C` [DUB VCI 10, Isodecyl Neopentanoate], the Polarity is given as 29.9 mN/m.
For `CCCCC(CC)C(=O)OCCC(C)CC(C)(C)C` (stereo not drawn) [Dermol 98, 2-Ethylhexanoic acid 3,5,5-Trimethyl ester], the Polarity worked out at 26.2 mN/m.
Compound `CCCCCCCC(=O)OCCCCCCCC(C)C` [Dermol 108, Isodecyl Octanoate] displayed a Polarity of 29.6 mN/m.
Still for that read-out and setting: in the case of `CC(C)CCCCCCCOC(=O)CC(C)CC(C)(C)C` (stereo not drawn) [Dermol 109, Isodecyl 3,5,5 Trimethyl Hexanoate] it was 29.1 mN/m; in that of `CCCCCCCCCC(=O)OCCCC(C)C` [Dermol IHD, Isohexyl decanoate], 29.7 mN/m; in that of `CCCCCCOCCCCCC` [Dihexyl Ether], 29.2 mN/m.
For the compound `CCCCCCCCCCC(CO)CCCCCCCC` (stereo not drawn) [Eutanol G, Octyldodecanol], the Polarity is 24.8 mN/m.
`CCCCCCC(CCCC)C(=O)O` (stereo not drawn) [Isocarb 12, Butyl Octanoic acid] yielded a Polarity of 22.1 mN/m.
Same read-out and setting: for `CCCCCCCCCCCCCCCCCC(=O)OC(C)C` [Isopropyl stearate, Isopropyl Stearate] the value was 21.9 mN/m.
On the same count and under the same terms, for `CCCCCCCCCCCCCC(=O)OCC(CCCCCCCC)CCCCCCCCCC` (stereo not drawn) [M.O.D., Octyldodecyl Myristate] the value was 22.1 mN/m; for `CCCCCCCC(=O)OCC(COC(=O)CCCCCCC)OC(=O)CCCCCCC` [Trivent OCG, Tricaprylin], 20.2 mN/m; for “Isotridecyl 3,5,5 Trimethylhexanonanoate [Dermol 139]”, 24.5 mN/m.

The same data set, now with this note: nonpolar lipids.
In the case of `CCCCCCCC(=O)OC(=O)CCCCCCC` [Cetiol OE, Dicaprylyl Ether], the Polarity was found to be 30.9 mN/m.
In turn, `CCCCC(CC)COC(=O)CCCCCC(C)C` (stereo not drawn) [Dermol 89, 2-Ethylhexyl Isononanoate] showed a Polarity of 31.0 mN/m.
Still for that read-out and setting: in the case of `CC(CCOC(=O)CC(C)CC(C)(C)C)CC(C)(C)C` (stereo not drawn) [Dermol 99, Trimethylhexyl Isononanoate] it was 31.1 mN/m; in that of `CCCCCCOC(=O)OCCCCCC` [Dihexyl carbonate, Dihexyl Carbonate], 30.9 mN/m; in that of `O1[SiH2]O[SiH2]O[SiH2]O[SiH2]O[SiH2]1` (stereo not drawn) [Dow Corning Fluid 245, Cyclopentasiloxane], 32.3 mN/m.
On the same count and under the same terms, for `CCCCCCCCCCCCCCCCCC(C)C` [Isoeicosane] the value was 41.9 mN/m; for `CCCCCCCCOC(=O)CCCCCCCCCCCCCCC(C)C` [Prisorine 2036, Octyl Isostearate], 31.6 mN/m; for `CCCCCCCC/C=C\CCCCCCCC(=O)OCCOCCOCC` [Softcutol O, Ethoxydiglycol Oleate], 40.5 mN/m.
For the compound `CCCCCCCCCCCCCC(C)C` [Solvent ICH, Isohexadecane], the Polarity was 43.8 mN/m.
For the compound Dioctylcyclohexane [Cetiol S], the Polarity amounted to 39.0 mN/m.
With Isocetyl Palmitate [Tegosoft HP], the Polarity amounted to 36.2 mN/m.

Still in this data set, the particulars now being: polar lipids.
`CCCCOC(=O)CCCCC(=O)OCCCC` [Cetiol B, Dibutyl Adipate] gave a Polarity of 14.3 mN/m.
Compound `CC(C)CCCCCCCCCCCCCCC(=O)O.CC(O)CO` [Emerest 2384, Propylene Glycol Monoisostearate] displayed a Polarity of 6.2 mN/m.
`CCCCCCCCCCCCCCCCCCOC(=O)CCCCCC` [Tegosoft SH, Stearyl Heptanoate]: the Polarity is given as 17.8 mN/m.
The same measure, in the same setting: in the case of PEG 2 Diethylene hexanoate [Dermol 488] it was 10.1 mN/m.
On the same count and under the same terms, for Triisostearin [Prisorine 2041 GTIS] the value was 2.4 mN/m.

Still in this data set, the particulars now being: silicone oils.
In the case of `O1[SiH2]O[SiH2]O[SiH2]O[SiH2]O[SiH2]1` (stereo not drawn) [Dow Corning Fluid 245, Cyclopentasiloxane], the Polarity was found to be 32.3 mN/m.

In another data set the test system is insects.
Assay: not given
The settings on record: cited from earlier work.
For `CCN(CC)C(=O)c1cccc(C)c1` [DEET, N,N-diethyl-3-methylbenzamide], the “effective against (pests repelled)” value is “mosquitoes, horse-flies, sand-flies, ticks, biting flies, mites, fleas and bugs”.
Turning to `COC(=O)c1ccccc1C(=O)OC` [Dimethyl phthalate], the “effective against (pests repelled)” value is “mosquitoes (in particular Aedes and Anopheles species)”.
In the case of `CCCCN(CCC(=O)OCC)C(C)=O` [Repellent 3535, ethyl 3-(N-n-butyl-N-acetylamino)propionate], the “effective against (pests repelled)” value was “mosquitoes (Aedes aegypti, Anopheles albimanus), tsetse flies (Glossinae) and horse-flies (Tabanidae)”.

Still in this data set, the particulars now being: pests repelled, table of further repellents; cited from earlier work.
Take `O=CC12CC=CCC1C1CC=CCC1O2` (stereo not drawn) [2,3;4,5-bis(2-Butylene)tetrahydro-2-furaldehyde]: the “Effectiveness (literature and manufacturer details)” value (from here on “Effectiveness”) is “cockroaches and biting insects^1”.
In the case of `CCCC(O)C(CC)CO` (stereo not drawn) [2-Ethylhexane-1,3-diol], the “Effectiveness” value is “mosquitoes, horse-flies, flies, fleas, mites^1”.
`COC(=O)C1C2C=CC(C2)C1C(=O)OC` (stereo not drawn) [Dimethyl carbate]: the “Effectiveness” value is on record as “mosquitoes, in particular of the Aedes species^1”.
Take `CCCCCCCC(=O)N(CC)CC` [N,N-Diethyl caprylamide]: the “Effectiveness” value is given as “cockroaches, mosquitoes, house files, horse-flies, ants, arachnids”.
As for `CCCCC(CC)CN1C(=O)C2C3C=CC(C3)C2C1=O` (stereo not drawn) [N-Octylbicycloheptenedicarboximide], the “Effectiveness” value is listed as “synergist^2”.
`CCCCOCCOCCOCc1cc2c(cc1CCC)OCO2` [Piperonyl butoxide]: the “Effectiveness” value is given as “synergist^2”.
